One experiment deals with MHC-I expression by COLO 205 cells. Put plainly: cells. The class given is cell-based, human.
Settings: not given
As for the experimental part: A panel of synthetic cannabinoids (Cayman Chemical, #9002891) was tested for MHC class I-inducing capability in COLO 205 cells as described above. COLO 205 cells were treated with the compounds at a concentration of 35 μM and evaluated for cell surface MHC class I expression after 48 hours. Cells were harvested, stained with MHC-I mAb W6/32 (Thermo Fisher). MHC-I expression was determined by flow cytometry.
Take `CCCCCn1cc(C(=O)c2cc(C)cc3ccccc23)c2ccccc21` [Example 219, (3-methylnaphthalen-1-y1)(1-pentyl-1H-indol-3-yl)methanone]: the “Induction Fold” value was determined as 1.78 Fold.

Staying with this experiment, now noted: Homo sapiens, COLO 205, 48 h, MHC-I expression, COLO 205 cells, compounds at 35 μM, 48 hours, flow cytometry (W6/32); read-out: Induction Fold.
With `O=C(c1cn(CCCCCF)c2ccccc12)N1CCCC1` [Example 215, (1-(5-fluoropentyl)-1H-indol-3-yl)(pyrrolidin-1-yl)methanone], the fold induction at 35 µM turned out to be 1.8. For the compound `CCc1ccc(C(=O)c2cn(CCCCCF)c3ccccc23)c2ccccc12` [Example 216, (4-ethyl-1-naphthalenyl)[1-(5-fluoropentyl)-1H-indol-3-yl]-methanone], the fold induction at 35 µM was 1.79. On the same count and under the same terms, with `CC(C)(C)C(NC(=O)c1nn(Cc2ccccc2)c2ccccc12)C(N)=O` (stereo not shown) [Example 217, N-(1-amino-3,3-dimethyl-1-oxobutan-2-yl)-1-benzyl-1H-indazole-3-carboxamide] the figure was 1.79; with `O=C(Oc1ccc2cnccc2c1)c1cn(CCCCCF)c2ccccc12` [Example 218, isoquinolin-6-yl 1-(5-fluoropentyl)-1H-indole-3-carboxylate], 1.78.

With `O=C(c1cccc2ccccc12)c1cn(Cc2ccc(F)cc2)c2ccccc12` [Example 220, (1-(4-fluorobenzyl)-1H-indol-3-yl)(naphthalen-1-yl)methanone], the fold induction at 35 µM was 1.77.

As to `CC(C)[C@H](NC(=O)c1nn(Cc2cccc(F)c2)c2ccccc12)C(N)=O` [Example 221, N-[(1S)-1-(aminocarbonyl)-2-methylpropyl]-1-[(3-fluorophenyl)methyl]-1H-indazole-3-carboxamide], the fold induction at 35 µM was 1.77. On the same count and under the same terms, with `CC1(C)C(C(=O)c2cn(CCCCCBr)c3ccccc23)C1(C)C` [Example 222, [1-(5-bromopentyl)-1H-indol-3-yl](2,2,3,3-tetramethylcyclopropyl)-methanone] the figure was 1.76. The same measure, in the same setting: with `CCCCCn1cc(C(=O)c2ccc(Cl)c3ccccc23)c2ccccc21` [Example 223, (4-chloro-1-naphthalenyl)(1-pentyl-1H-indol-3-yl)-methanone] the figure was 1.76; with `CCCCCn1nc(C(=O)Nc2cccc3ccccc23)c2ccccc21` [Example 224, N-1-naphthalenyl-1-pentyl-1H-indazole-3-carboxamide], 1.75. Still for that read-out and setting: with `CC(C)CCCCn1cc(C(=O)C2C(C)(C)C2(C)C)c2ccccc21` [Example 225, (1-(5-methylhexyl)-1H-indol-3-yl)(2,2,3,3-tetramethylcyclopropyl)methanone] the figure was 1.75; with `O=C(Nc1cccc(-c2ccccc2)c1)OC1CCCCC1` [Example 226, N-[1,1′-biphenyl]-3-yl-carbamic acid, cyclohexyl ester], 1.74. For `NC(=O)[C@H](Cc1ccccc1)NC(=O)c1nn(CCCCCF)c2ccccc12` [Example 227, (S)-N-(1-amino-1-oxo-3-phenylpropan-2-yl)-1-(5-fluoropentyl)-1H-indazole-3-carboxamide], the fold induction at 35 µM is 1.72. As for `CC(C)(NC(=O)c1nn(CCCCCF)c2ccccc12)c1ccccc1` [Example 228, 1-(5-fluoropentyl)-N-(1-methyl-1-phenylethyl)-1H-indazole-3-carboxamide], the fold induction at 35 µM is 1.72. Still for that read-out and setting: with `O=C(c1nn(CCCCCF)c2ccccc12)N1CCCC1` [Example 230, (1-(5-fluoropentyl)-1H-indazol-3-yl)(pyrrolidin-1-yl)methanone] the figure was 1.72; with `CCCCCn1cc(C(=O)c2cccc3ccc(CC)cc23)c2ccccc21` [Example 231, (7-ethyl-1-naphthalenyl)(1-pentyl-1H-indol-3-yl)-methanone], 1.72; with `CCCCCn1nc(C(=O)Nc2cccc3cccnc23)c2ccccc21` [Example 232, 1-pentyl-N-(quinolin-8-yl)-1H-indazole-3-carboxamide], 1.71. As for `CC(F)CCCCn1cc(C(=O)c2cccc3ccccc23)c2ccccc21` (stereo not shown) [Example 233, (1-(5-fluorohexyl)-1H-indol-3-yl)(naphthalen-1-yl)methanone], the fold induction at 35 µM amounted to 1.71. On to `CCCCCn1cc(C(=O)c2cc(OC)cc3ccccc23)c2ccccc21` [Example 234, (3-methoxynaphthalen-1-yl)(1-pentyl-1H-indol-3-yl)methanone], for which the fold induction at 35 µM amounted to 1.71. For the compound `CC(F)CCCn1cc(C(=O)C2C(C)(C)C2(C)C)c2ccccc21` (stereo not shown) [Example 235, (1-(4-fluoropentyl)-1H-indol-3-yl)(2,2,3,3-tetramethylcyclopropyl)methanone], the fold induction at 35 µM stood at 1.7. On the same count and under the same terms, with `CCOC(=O)[C@@H](NC(=O)c1nn(CCCCCF)c2ccccc12)C(C)C` [Example 236, ethyl (1-(5-fluoropentyl)-1H-indazole-3-carbonyl)-L-valinate] the figure was 1.7. Turning to `CC(C)[C@H](NC(=O)c1cn(Cc2ccc(F)cc2)c2ccccc12)C(N)=O` [Example 237, N-[(1S)-1-(aminocarbonyl)-2-methylpropyl]-1-[(4-fluorophenyl)methyl]-1H-indole-3-carboxamide], the fold induction at 35 µM amounted to 1.7. Still for that read-out and setting: with `CCCCCn1cc(C(=O)c2cccc3c(Cl)cccc23)c2ccccc21` [Example 238, (5-chloronaphthalen-1-yl)(1-pentyl-1H-indol-3-yl)methanone] the figure was 1.7; with `COC(=O)[C@@H](NC(=O)c1ccc2c(c1)c1ccccc1n2CC1CCCCC1)C(C)(C)C` [Example 239, methyl (S)-2-(9-(cyclohexylmethyl)-9H-carbazole-3-carboxamido)-3,3-dimethylbutanoate], 1.69; with `CCCCCn1cc(C(=O)c2cccc3cc(C)ccc23)c2ccccc21` [Example 240, (6-methylnaphthalen-1-yl)(1-pentyl-1H-indol-3-yl)methanone], 1.69. As for `CCCCCn1c(C)c(C(=O)c2ccc(CC)c3ccccc23)c2ccccc21` [Example 244, (4-ethyl-1-naphthalenyl)(2-methyl-1-pentyl-1H-indol-3-yl)-methanone], the fold induction at 35 µM came to 1.66. Turning to `CCCCCn1cc(C(=O)N[C@@H](Cc2ccccc2)C(N)=O)c2ccccc21` [Example 246, (S)-N-(1-amino-1-oxo-3-phenylpropan-2-yl)-1-pentyl-1H-indole-3-carboxamide], the fold induction at 35 µM was determined as 1.65.

The experiment is the same for the next values; noted with them: MHC-I expression, COLO 205 cells, compounds at 35 μM, 48 hours, flow cytometry (W6/32).
`COC(=O)[C@@H](NC(=O)c1cn(CC2CCCCC2)c2ccccc12)C(C)C` [Example 229, methyl (1-(cyclohexylmethyl)-1H-indole-3-carbonyl)-1-valinate]: the “Induction Fold” value is listed as 1.72 Fold. With `CCCCCCCC/C=C\CCCCCCCC(=O)N[C@H](C)CO` [Example 242], the “Induction Fold” value came out at 1.67 Fold.

For the compound `CCCCCn1nc(C(=O)OC23CC4CC(CC(C4)C2)C3)c2ccccc21` [Example 243, (3s,5s,7s)-adamantan-1-yl 1-pentyl-1H-indazole-3-carboxylate], the “Induction Fold” value is given as 1.67 Fold. For `CCCCCn1cc(C(=O)C23CC4CC(CC(C4)C2)C3)c2ccccc21` [Example 245, (1s,3s)-adamantan-1-yl(1-pentyl-1H-indol-3-yl)methanone], the “Induction Fold” value turned out to be 1.66 Fold.

Source of the values: patent publication US20210038559A1, “CANNABINOIDS AND DERIVATIVES FOR PROMOTING IMMUNOGENICITY OF TUMOR AND INFECTED CELLS” (priority 2018, published 2021).
